Source: patent publication US20250230193A1, “CYCLIC COMPOUND HAVING SELECTIVE KRAS INHIBITORY EFFECT ON HRAS AND NRAS” (CHUGAI SEIYAKU KABUSHIKI KAISHA, priority 2022, published 2025)
Where a SMILES comes first, the peptide text is derived from it. Bridges are numbered along the chain shown (N, C = ends). [ ]: non-standard residue; d: D form. hPhe(3,5-F2-4-CF3) = N[C@@H](CCc1cc(F)c(C(F)(F)F)c(F)c1)C(=O)O; NPrPhe(4-CF3) = CCCN[C@@H](Cc1ccc(C(F)(F)F)cc1)C(=O)O; NMeGly(cPent) = CN[C@H](C(=O)O)C1CCCC1; NMeD = CN[C@@H](CC(=O)O)C(=O)O; Ac4c(3-oxa) = NC1(C(=O)O)COC1; NMeL = CN[C@@H](CC(C)C)C(=O)O; Sar = CNCC(=O)O

What was measured:
[1] = biological target: GDP-bound NRAS wild-type protein (Homo sapiens, UniProt P01111); test: Binding to NRAS by surface plasmon resonance (SPR), Single Cycle Kinetics; conditions: for NRAS/KRAS (ratio of KD value with respect to NRAS to KD value with respect to KRAS): GDP-bound NRAS wild-type vs GDP-bound KRAS wild-type
GDP-bound NRAS wild-type protein, sequence (P01111 whole entry): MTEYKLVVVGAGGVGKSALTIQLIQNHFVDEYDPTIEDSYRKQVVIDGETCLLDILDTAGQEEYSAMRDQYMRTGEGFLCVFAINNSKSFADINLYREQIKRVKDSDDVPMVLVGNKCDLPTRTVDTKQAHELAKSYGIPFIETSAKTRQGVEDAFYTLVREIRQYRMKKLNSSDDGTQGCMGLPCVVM

[2] = biological target: GDP-bound HRAS wild-type protein (Homo sapiens, UniProt P01112); test: Binding to HRAS by surface plasmon resonance (SPR), Single Cycle Kinetics; conditions: for HRAS/KRAS (ratio of KD value with respect to HRAS to KD value with respect to KRAS): GDP-bound HRAS wild-type vs GDP-bound KRAS wild-type
GDP-bound HRAS wild-type protein, sequence (P01112 whole entry): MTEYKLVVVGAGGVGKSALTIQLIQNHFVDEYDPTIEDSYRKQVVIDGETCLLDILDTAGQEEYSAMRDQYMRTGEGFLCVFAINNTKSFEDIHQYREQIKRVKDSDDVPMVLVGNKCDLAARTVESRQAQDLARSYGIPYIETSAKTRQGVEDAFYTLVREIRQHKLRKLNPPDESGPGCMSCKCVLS

[3] = SPR, GDP-bound wild-type proteins

## CCC[C@H]1C(=O)N[C@@H]([C@@H](C)CC)C(=O)N(C)CC(=O)N(C)[C@H]2C/C=C\CCN(C2=O)[C@@H](Cc2ccc(C)cc2)C(=O)N(C)CC(=O)N[C@@H](CCc2ccc3c(C)cn(C)c3c2)C(=O)N2C[C@H](OCC)C[C@H]2C(=O)NC2(CC(C)(C)C2)C(=O)N(C)[C@@H](C(CC)CC)C(=O)N(C)[C@H](C(=O)N(C)C)CC(=O)N1C [PP2910]
[1]; class symbols
  NRAS/KRAS (ratio of KD value with respect to GDP-bound NRAS wild-type protein to KD value with respect to KRAS): AA (a compound having 20 or more is denoted as AA)
[2]; class symbols
  HRAS/KRAS (ratio of KD value with respect to GDP-bound HRAS wild-type protein to KD value with respect to KRAS): A (a compound having 10 or more and less than 20 is denoted as A)

## CCO[C@@H]1C[C@H]2C(=O)NC3(CC(C)(C)C3)C(=O)N(C)[C@@H](C3CCCC3)C(=O)N(C)[C@H](C(=O)N(C)C)CC(=O)N(C)[C@H]3CCCCCc4ccc(cc4)C[C@@H](C(=O)N(C)CC(=O)N[C@@H](CCc4ccc(Cl)c(Cl)c4)C(=O)N2C1)N1CC/C=C\C[C@@H](C1=O)N(C)C(=O)CN(C)C(=O)[C@H]([C@@H](C)CC)NC3=O [PP3076]
[1]; [3]
  NRAS/KRAS (ratio of KD value with respect to GDP-bound NRAS wild-type protein to KD value with respect to KRAS): AA (a compound having 20 or more is denoted as AA)
[2]; [3]
  HRAS/KRAS (ratio of KD value with respect to GDP-bound HRAS wild-type protein to KD value with respect to KRAS): A (a compound having 10 or more and less than 20 is denoted as A)

## CCC[C@H]1C(=O)N[C@@H](C(CC)CC)C(=O)N(C)CC(=O)N(C)[C@H]2C/C=C\CCN(C2=O)[C@@H](Cc2ccc(C)cc2)C(=O)N(C)CC(=O)N[C@@H](CCc2ccc(C(F)(F)F)c(Cl)c2)C(=O)N2C[C@H](OCC)C[C@H]2C(=O)NC2(CC(C)(C)C2)C(=O)N(C)[C@@H](C2CCCC2)C(=O)N(C)[C@H](C(=O)N(C)C)CC(=O)N1C [PP2209]
[1]; SPR
  NRAS/KRAS (ratio of KD value with respect to NRAS to KD value with respect to KRAS): A (a compound having 10 or more and less than 20 is denoted as A)
[2]; SPR
  HRAS/KRAS (ratio of KD value with respect to HRAS to KD value with respect to KRAS): A (a compound having 10 or more and less than 20 is denoted as A)

## CCCN1C(=O)CN(C)C(=O)CN(C)C(=O)[C@H]([C@@H](C)CC)NC(=O)[C@H](CC(C)C)N(C)C(=O)C[C@@H](C(=O)N(C)C)N(C)C(=O)[C@H](C2CCCC2)N(C)C(=O)C2(COC2)NC(=O)[C@@H]2CCCN2C(=O)[C@H](CCc2cc(F)c(C(F)(F)F)c(F)c2)NC(=O)CN(C)C(=O)[C@@H]1Cc1ccc(C(F)(F)F)cc1 [PP0744] ([NMeL]I[Sar][Sar][NPrPhe(4-CF3)][Sar][hPhe(3,5-F2-4-CF3)]P[Ac4c(3-oxa)][NMeGly(cPent)][NMeD]-NMe2; lactam N-11)
[1]; SPR
  NRAS/KRAS (ratio of KD value with respect to GDP-bound NRAS wild-type protein to KD value with respect to KRAS): B (a compound having 3 or more and less than 10 is denoted as B)
[2]; SPR
  HRAS/KRAS (ratio of KD value with respect to GDP-bound HRAS wild-type protein to KD value with respect to KRAS): B (a compound having 3 or more and less than 10 is denoted as B)

## CC[C@H](C)[C@@H]1NC(=O)[C@H](CC(C)C)N(C)C(=O)C[C@@H](C(=O)N2CCOCC2)N(C)C(=O)[C@H](C2CCCC2)N(C)C(=O)C2(CCC2)NC(=O)[C@@H]2[C@@H](OCC(F)F)CCN2C(=O)[C@H](CCc2cc(F)c(C(F)(F)F)c(F)c2)NC(=O)CN(C)C(=O)[C@H](Cc2ccc(C(F)(F)F)cc2)N2CCCCC[C@@H](C2=O)N(C)C(=O)CN(C)C1=O [PP1012]
[1]; KD ratio, SPR
  NRAS/KRAS (ratio of KD value with respect to NRAS to KD value with respect to KRAS): A (a compound having 10 or more and less than 20 is denoted as A)
[2]; KD ratio, SPR
  HRAS/KRAS (ratio of KD value with respect to HRAS to KD value with respect to KRAS): B (a compound having 3 or more and less than 10 is denoted as B)

## CC[C@H](C)[C@@H]1NC(=O)[C@H](CC(C)C)N(C)C(=O)C[C@@H](C(=O)N2CCOCC2)N(C)C(=O)[C@H](C2CCCC2)N(C)C(=O)C2(CCC2)NC(=O)[C@@H]2CCCN2C(=O)[C@H](CCc2cc(F)c(C(F)(F)F)c(F)c2)NC(=O)CN(C)C(=O)[C@H](Cc2ccc(C(F)(F)F)cc2)N2CCCCC[C@@H](C2=O)N(C)C(=O)CN(C)C1=O [PP0497]
[1]; SPR
  NRAS/KRAS (ratio of KD value with respect to GDP-bound NRAS wild-type protein to KD value with respect to KRAS): B (a compound having 3 or more and less than 10 is denoted as B)
[2]; SPR
  HRAS/KRAS (ratio of KD value with respect to GDP-bound HRAS wild-type protein to KD value with respect to KRAS): B (a compound having 3 or more and less than 10 is denoted as B)

## CCC[C@H]1C(=O)N[C@@H]([C@@H](C)CC)C(=O)N(C)CC(=O)N(C)[C@H]2C/C=C\CCN(C2=O)[C@@H](Cc2ccc(C)cc2)C(=O)N(C)CC(=O)N[C@@H](CCc2cc(F)c(C(F)(F)F)c(F)c2)C(=O)N2C[C@H](OCC)C[C@H]2C(=O)NC2(CC(C)(C)C2)C(=O)N(C)[C@@H](C(CC)CC)C(=O)N(C)[C@H](C(=O)N(C)C)CC(=O)N1C [PP2064]
[1]; SPR
  NRAS/KRAS (ratio of KD value with respect to NRAS to KD value with respect to KRAS): A (a compound having 10 or more and less than 20 is denoted as A)
[2]; SPR
  HRAS/KRAS (ratio of KD value with respect to HRAS to KD value with respect to KRAS): A (a compound having 10 or more and less than 20 is denoted as A)
